Results on one molecule are retold here after US5599926.

For the data set the following is noted: from C=CCOc1ccc(C[C@H](N)C(=O)NCc2cc(CSc3cc(SCc4cc(CNC(=O)[C@@H](N)Cc5ccc(OCC=C)cc5)cc(C(=O)Oc5c(F)c(F)c(F)c(F)c5F)c4)cc(SCc4cc(CNC(=O)[C@@H](N)Cc5ccc(OCC=C)cc5)cc(C(=O)Oc5c(F)c(F)c(F)c(F)c5F)c4)c3)cc(C(=O)Oc3c(F)c(F)c(F)c(F)c3F)c2)cc1; amide bond; N,N-diisopropylethylamine (pentafluorophenyl ester); THF; 2.3 mM; 25.0 °C; 45.0 h.

On to `C=CCOc1ccc(C[C@@H]2NC(=O)c3cc4cc(c3)CSc3cc5cc(c3)SCc3cc(cc(c3)C(=O)N[C@@H](Cc3ccc(OCC=C)cc3)C(=O)NC4)CNC(=O)[C@H](Cc3ccc(OCC=C)cc3)NC(=O)c3cc(cc(c3)CS5)CNC2=O)cc1`, for which the ring closure, yield of all isomers was determined as 65%.
